Patent US9382288B2, “Derivatives of steroid benzylamines, having an antiparasitic antibacterial, antimycotic and/or antiviral action” (Justus-Liebig-Universitat Giessen, priority 2010, dated 2016)
Values after ≈ are worked out from the molar mass of the structure shown. Values joined by “and” are separate entries in the source; they are usually repeats but may differ in a detail not shown here. Equal entries are not always repeated. “Also recorded” adds a separate entry of the source. Where two headings read alike, the source gives them in different places.

Experiments:
[1] = tested on: P. falciparum strain 3D7-Netherlands; assay: In vitro IC50, 3H-hypoxanthine incorporation, P. falciparum 3D7; format: cell-based, Plasmodium falciparum; settings: Plasmodium falciparum
[2] = tested on: Plasmodium falciparum strain K1; assay: In vitro IC50, 3H-hypoxanthine incorporation, P. falciparum K1; format: cell-based; settings: chloroquine-resistant Plasmodium falciparum strain K1
L929 = assay: Antiproliferative activity L929; format: cell-based; settings: Mus musculus, read-out: IC50 [μg/ml] Antiproliferative activity L929
K562 = assay: Antiproliferative activity K562; format: cell-based; settings: Homo sapiens, read-out: IC50 [μg/ml] Antiproliferative activity K562
[3] = tested on: Plasmodium berghei GFP MRA-865; assay: Plasmodium berghei infection in the mouse model (in vivo); settings: for Activity (%): parasitemia day 4 vs untreated controls
Cytotoxicity HeLa = settings: human, HeLa cells
adult S. mansoni = assay: In vitro treatment of adult S. mansoni couples, visual evaluation by microscope; parameters: species or system Schistosoma mansoni
Method: Compounds 2, 18 and 41 were tested by Prof. Dr. Grevelding, Parasitology, Veterinary Medicine, University of Gieβen, also in the parasite Schistosoma mansoni. […] Each test was performed with 3 groups of 10 worms each. Remarkable was that different effects on the worms with respect to morphological alterations could be observed. […] Exemplarily shown in FIGS. 1 and 2 is an image of a control assay and an image of trematodes after 48 hours of incubation with compound 18.
Each one of the three groups (one group per well) comprised 10 pairs of adult S. mansoni were incubated with the substance to be tested for 24 h. As control served three groups which were incubated with medium (M199) and three groups which were incubated with medium and DMSO as solvent of the test substances. Evaluation was done visually using a microscope.
In a second experimental setting, again three groups each (one group per well) with 8 pairs of adult S. mansoni each were incubated with the compound to be tested, however for 48 h in this experiment. As control served three groups which were either incubated with medium (M199) or medium and DMSO as solvent of the test substances. Evaluation was done visually using a microscope.

[4] = tested on: Trypanosoma brucei brucei S427; assay: In vitro efficacy against Trypanosoma brucei; format: cell-based
Method: Compounds 18 and 41 were assessed at the London School of Hygiene and Tropical Medicine in vitro with respect to their efficacy against the parasite Trypanosoma brucei brucei […].

[5] = P. falciparum strain 3D7, read-out: IC50 [nM] P.f.(3D7)

In the case of COc1ccc2c(c1)CCC1C2CC[C@@]2(C)C1CC[C@@H]2NCc1ccccc1O (stereo partly drawn) [Compound 1, 17β-(2-Hydroxyphenyl-methylamino)-3-methoxy-estra-1,3,5(10)-triene], the IC50 [1, 5] is reported as 50 nM, the IC50 ([1]; P. falciparum strain 3D7, read-out: IC50 [ng/ml] P.f.(3D7)) is reported as 19.8 ng/mL and the IC50 [2] is reported as 0.073 µM. For the same compound, the IC50 (L929) was 2.2 µg/mL (≈ 5.62 µM), the IC50 (K562) was 0.8 µg/mL (≈ 2.04 µM) and the “life span in words” value ([3]; all dosages and routes of administration tested) was “considerably extended the life span”. The “MSD (days)” value ([3]; oral 3 × 100 mg/kg) was 16.3 (n = 3) days, the “Activity (%)” value ([3]; oral 3 × 100 mg/kg) was 99% and the “MSD (days)” value ([3]; sc 3 × 10 mg/kg) was 10.2 (n = 3) days. The “Activity (%)” value ([3]; sc 3 × 10 mg/kg) was 47%, the “MSD (days)” value ([3]; sc 3 × 30 mg/kg) was 15 (n = 3) days and the “Activity (%)” value ([3]; sc 3 × 30 mg/kg) was 94%. The IC50 (Cytotoxicity HeLa) was 11 µM and 4.3 µg/mL.

With COc1ccc2c(c1)CCC1C2CC[C@@]2(C)C1CC[C@H]2NCc1cc2ccccc2cc1O (stereo partly drawn) [Compound 41, 17α-[(3-Hydroxy-naphth-2-yl)-methylamino]-3-methoxy-estra-1,3,5(10)-triene] the IC50 ([1]; 3D7, read-out: IC50 [ng/ml] P.f.(3D7)) was 1.9 ng/mL, the IC50 [1, 5] was 4.4 nM and the “morphological alterations of the worms” value (adult S. mansoni) was “dorsal bending”. For the same compound, the egg production (adult S. mansoni; 24 hours, 20 μM) was “Almost no eggs could be detected; also recorded: Almost no eggs were detectable”, the motility / vitality (adult S. mansoni; 24 hours, 20 μM) was “Males barely moved and showed only twitching; also recorded: Trematodes moved only slightly and with twitching movements” and the egg production (adult S. mansoni; 24 hours, 100 μM) was “Almost no eggs could be detected”. The motility / vitality (adult S. mansoni; 24 hours, 100 μM) was “Males showed almost no motility”, the couples detectable (adult S. mansoni; 24 hours, 100 μM, 3 groups of 10 pairs) was “only in one of the groups a couple was detectable” and the egg production (adult S. mansoni; 48 hours, 20 μM) was “No eggs were produced”. For the same compound, the motility / vitality (adult S. mansoni; 48 hours, 20 μM) was “Single trematodes showed slightly twitching movements, while the rest was non-motile”, the couples detectable (adult S. mansoni; 48 hours, 20 μM, 3 groups of 8 pairs) was “no couples could be observed in any of the groups” and the egg production (adult S. mansoni; 48 hours, 100 μM) was “No eggs were detectable”. The motility / vitality (adult S. mansoni; 48 hours, 100 μM) was “Some of the worms were already dead, while others were dying”, the couples detectable (adult S. mansoni; 48 hours, 100 μM, 3 groups of 8 pairs) was “no couples could be observed in any of the groups” and the IC50 [4] was 3.58 µM.
